# According to patent USRE47302E1 (ONYX THERAPEUTICS INC., priority 2013, dated 2019):
# What was measured:
# [1] = molecular target: human constitutive 20S proteasome (c20S) (Homo sapiens, UniProt P28074); assay: 20S proteasome assay, chymotrypsin-like activity (succinyl-Leu-Leu-Val-Tyr-AMC), c20S; type: biochemical; conditions: LLVY substrate, 1 h continuous
# Excerpt: (§1) Assay buffer consisted of TE buffer [20 mmol/L Tris (pH 8.0), 0.5 mmol/L EDTA] with (20S) or without (cell lysate) 0.03% SDS. Reactions were initiated by enzyme or lysate addition and monitored for AMC product formation at 27jC with a plate-based spectofluorometer (Tecan).
# Solubility pH 7 = conditions: pH 7, aqueous buffer
# [2] = molecular target: T1, immunoproteasome subunit LMP7 (Homo sapiens, UniProt P28062); assay: Proteasome active-site ELISA (ProCISE), LMP7, MOLT-4 lysate; type: biochemical; conditions: MOLT4 lysate, 1 h continuous treatment, 25° C.
# T1 construct: Lysate from the human acute lymphoblastic leukemia cell line, MOLT-4; endogenous in cells; host or cells: MOLT-4
# Method in brief: (§2)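 MOLT-4 cell lysate treated 1 h at 25 °C with compound; probe-bound subunits denatured, pulled down on streptavidin beads and detected with subunit-specific antibodies plus HRP chemiluminescence.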
# [3] = molecular target: T2, proteasome subunit β5 (beta5) (Homo sapiens, UniProt P28074); assay: Proteasome active-site ELISA (ProCISE), beta5, MOLT-4 lysate; type: biochemical; conditions: MOLT4 lysate, human, 1 h continuous treatment, 25° C.
# T2 construct: Lysate from the human acute lymphoblastic leukemia cell line, MOLT-4; endogenous in cells; host or cells: MOLT-4
# Method in brief: as §2
# [4] = molecular target: human 20S immunoproteasome (i20S) (Homo sapiens, UniProt P28062); assay: 20S proteasome assay, chymotrypsin-like activity (succinyl-Leu-Leu-Val-Tyr-AMC), i20S; type: biochemical; conditions: LLVY substrate, 1 h continuous
# Excerpt: as §1
smiles,measurement,setting,value
"COc1ccc(C[C@H](NC(=O)[C@H](C)NC(=O)CN2CCOCC2)C(=O)N[C@@H](CC2CCCC2)C(=O)[C@@]2(C)CO2)cc1 [Compound C-1005, (S)-N-((S)-3-cyclopentyl-1-((R)-2-methyloxiran-2-yl)-1-oxopropan-2-yl)-3-(4-methoxyphenyl)-2-((S)-2-(2-morpholinoacetamido)propanamido)propanamide]",IC50,[1],519 nM
same,solubility,Solubility pH 7,1760 µg/mL
same,IC50,[2],185 nM
same,IC50,[3],1940 nM
same,IC50,[4],70.4 nM
"C[C@H](NC(=O)CN1CCOCC1)C(=O)N[C@@H](Cc1ccc2occc2c1)C(=O)N[C@@H](CC1CCCC1)C(=O)[C@@]1(C)CO1 [Compound C-1007, (S)-3-(benzofuran-5-yl)-N-((S)-3-cyclopentyl-1-((R)-2-methyloxiran-2-yl)-1-oxopropan-2-yl)-2-((S)-2-(2-morpholinoacetamido)propanamido)propanamide]",IC50,[1],440 nM
same,solubility,Solubility pH 7,878 µg/mL
same,IC50,[2],314 nM
same,IC50,[3],2360 nM
same,IC50,[4],106 nM
"COc1ccc(C[C@H](NC(=O)[C@H](C)NC(=O)CN2CCOCC2)C(=O)N[C@@H](CC2=CCCC2)C(=O)[C@@]2(C)CO2)cc1 [Compound C-1009, (S)-N-((S)-3-(Cyclopent-1-en-1-yl)-1-((R)-2-methyloxiran-2-yl)-1-oxopropan-2-yl)-3-(4-methoxyphenyl)-2-((S)-2-(2-morpholinoacetamido)propanamido)propanamide]",IC50,[1],351 nM
same,solubility,Solubility pH 7,2730 µg/mL
same,IC50,[2],83.1 nM
same,IC50,[3],926 nM
same,IC50,[4],46.2 nM
"COc1ccc(C[C@H](NC(=O)[C@H](C)NC(=O)CC2CCOCC2)C(=O)N[C@@H](CC2CCCC2)C(=O)[C@@]2(C)CO2)cc1 [Compound C-1010, (S)-N-((S)-3-cyclopentyl-1-((R)-2-methyloxiran-2-yl)-1-oxopropan-2-yl)-3-(4-methoxyphenyl)-2-((S)-2-(2-(tetrahydro-2H-pyran-4-yl)acetamido)propanamido)propanamide]",IC50,[1],119 nM
same,solubility,Solubility pH 7,185 µg/mL
same,IC50,[2],99.6 nM
same,IC50,[3],695 nM
same,IC50,[4],24.4 nM
"COc1ccc(C[C@H](NC(=O)[C@@H](C)NC(=O)CC2CCOCC2)C(=O)N[C@@H](CC2CCCC2)C(=O)[C@@]2(C)CO2)cc1 [Compound C-1011, (S)-N-((S)-3-cyclopentyl-1-((R)-2-methyloxiran-2-yl)-1-oxopropan-2-yl)-3-(4-methoxyphenyl)-2-((R)-2-(2-(tetrahydro-2H-pyran-4-yl)acetamido)propanamido)propanamide]",IC50,[1],1550 nM
same,solubility,Solubility pH 7,1120 µg/mL
same,IC50,[2],556 nM
same,IC50,[3],6970 nM
same,IC50,[4],98.8 nM
"C[C@H](NC(=O)CN1CCOCC1)C(=O)N[C@@H](Cc1ccc2c(c1)OCO2)C(=O)N[C@@H](CC1CCCC1)C(=O)[C@@]1(C)CO1 [Compound C-1012, (S)-3-(benzo[d][1,3]dioxol-5-yl)-N-((S)-3-cyclopentyl-1-((R)-2-methyloxiran-2-yl)-1-oxopropan-2-yl)-2-((S)-2-(2-morpholinoacetamido)propanamido)propanamide]",IC50,[1],470 nM
same,solubility,Solubility pH 7,1720 µg/mL
same,IC50,[2],167 nM
same,IC50,[3],1280 nM
same,IC50,[4],92.5 nM
"C[C@H](NC(=O)CN1CCOCC1)C(=O)N[C@@H](Cc1coc2ccccc12)C(=O)N[C@@H](CC1CCCC1)C(=O)[C@@]1(C)CO1 [Compound C-1015, (S)-3-(benzofuran-3-yl)-N-((S)-3-cyclopentyl-1-((R)-2-methyloxiran-2-yl)-1-oxopropan-2-yl)-2-((S)-2-(2-morpholinoacetamido)propanamido)propanamide]",IC50,[1],506 nM
same,solubility,Solubility pH 7,212 µg/mL
same,IC50,[2],498 nM
same,IC50,[3],1140 nM
same,IC50,[4],167 nM
"COc1ccc(C[C@H](NC(=O)[C@H](C)NC(=O)CN2CCOCC2)C(=O)N[C@@H](CC2CCCC2)C(=O)[C@@]2(C)CO2)cc1O [Compound C-1018, (S)-N-((S)-3-cyclopentyl-1-((R)-2-methyloxiran-2-yl)-1-oxopropan-2-yl)-3-(3-hydroxy-4-methoxyphenyl)-2-((S)-2-(2-morpholinoacetamido)propanamido)propanamide]",IC50,[1],656 nM
same,solubility,Solubility pH 7,5840 µg/mL
same,IC50,[2],184 nM
same,IC50,[3],1730 nM
same,IC50,[4],170 nM
"COc1ccc(C[C@H](NC(=O)[C@@H](C)NC(=O)C2CCCC2)C(=O)N[C@@H](CC2CCCC2)C(=O)[C@@]2(C)CO2)cc1 [Compound C-1021, N-((R)-1-(((S)-1-(((S)-3-cyclopentyl-1-((R)-2-methyloxiran-2-yl)-1-oxopropan-2-yl)amino)-3-(4-methoxyphenyl)-1-oxopropan-2-yl)amino)-1-oxopropan-2-yl)cyclopentanecarboxamide]",IC50,[1],3540 nM
same,solubility,Solubility pH 7,19.3 µg/mL
same,IC50,[2],113 nM
same,IC50,[3],1900 nM
same,IC50,[4],144 nM
"COc1ccc([C@@H](O)[C@H](NC(=O)[C@H](C)NC(=O)CN2CCOCC2)C(=O)N[C@@H](CC2CCCC2)C(=O)[C@@]2(C)CO2)cc1 [Compound C-1022, (2S,3R)-N-((S)-3-Cyclopentyl-1-((R)-2-methyloxiran-2-yl)-1-oxopropan-2-yl)-3-hydroxy-3-(4-methoxyphenyl)-2-((S)-2-(2-morpholinoacetamido)propanamido)propanamide]",IC50,[1],729 nM
same,solubility,Solubility pH 7,4050 µg/mL
same,IC50,[2],85.1 nM
same,IC50,[3],1110 nM
same,IC50,[4],115 nM
"COc1ccc(C[C@H](NC(=O)[C@H](C)NC(=O)CN2CCCC(F)(F)C2)C(=O)N[C@@H](CC2CCCC2)C(=O)[C@@]2(C)CO2)cc1 [Compound C-1043, (S)-N-((S)-3-cyclopentyl-1-((R)-2-methyloxiran-2-yl)-1-oxopropan-2-yl)-2-((S)-2-(2-(3,3-difluoropiperidin-1-yl)acetamido)propanamido)-3-(4-methoxyphenyl)propanamide]",IC50,[1],404 nM
same,solubility,Solubility pH 7,79.2 µg/mL
same,IC50,[4],251 nM
"COc1ccc(C[C@H](NC(=O)[C@H](C)NC(=O)CN2CCOCC2)C(=O)N[C@@H](CC2=C(C)CCC2)C(=O)[C@@]2(C)CO2)cc1 [Compound C-1044, (S)-3-(4-methoxyphenyl)-N-((S)-3-(2-methylcyclopent-1-en-1-yl)-1-((R)-2-methyloxiran-2-yl)-1-oxopropan-2-yl)-2-((S)-2-(2-morpholinoacetamido)propanamido)propanamide]",IC50,[1],9090 nM
same,solubility,Solubility pH 7,1900 µg/mL
same,IC50,[4],2580 nM
"COc1ccc(C[C@H](NC(=O)[C@H](C)NC(=O)CN2CCC(Cl)CC2)C(=O)N[C@@H](CC2CCCC2)C(=O)[C@@]2(C)CO2)cc1 [Compound C-1045, (S)-2-((S)-2-(2-(4-chloropiperidin-1-yl)acetamido)propanamido)-N-((S)-3-cyclopentyl-1-((R)-2-methyloxiran-2-yl)-1-oxopropan-2-yl)-3-(4-methoxyphenyl)propanamide]",IC50,[1],470 nM
same,solubility,Solubility pH 7,50.2 µg/mL
same,IC50,[4],308 nM
"COc1ccc(C[C@H](NC(=O)[C@H](C)NC(=O)CN2CCC(C(F)(F)F)CC2)C(=O)N[C@@H](CC2CCCC2)C(=O)[C@@]2(C)CO2)cc1 [Compound C-1047, (S)-N-((S)-3-cyclopentyl-1-((R)-2-methyloxiran-2-yl)-1-oxopropan-2-yl)-3-(4-methoxyphenyl)-2-((S)-2-(2-(4-(trifluoromethyl)piperidin-1-yl)acetamido)propanamido)propanamide]",IC50,[1],707 nM
same,solubility,Solubility pH 7,24.1 µg/mL
same,IC50,[4],438 nM
"COc1ccc(C[C@H](NC(=O)[C@H](C)NC(=O)CN2CCC(F)(F)C2)C(=O)N[C@@H](CC2CCCC2)C(=O)[C@@]2(C)CO2)cc1 [Compound C-1048, (S)-N-((S)-3-cyclopentyl-1-((R)-2-methyloxiran-2-yl)-1-oxopropan-2-yl)-2-((S)-2-(2-(3,3-difluoropyrrolidin-1-yl)acetamido)propanamido)-3-(4-methoxyphenyl)propanamide]",IC50,[1],2630 nM
same,solubility,Solubility pH 7,153 µg/mL
same,IC50,[4],549 nM
"COc1ccc(C[C@H](NC(=O)[C@@H](C)NC(=O)[C@@H]2CCC(=O)NC2)C(=O)N[C@@H](CC2CCCC2)C(=O)[C@@]2(C)CO2)cc1 [Compound C-1058, (R)-N-((R)-1-(((S)-1-(((S)-3-cyclopentyl-1-((R)-2-methyloxiran-2-yl)-1-oxopropan-2-yl)amino)-3-(4-methoxyphenyl)-1-oxopropan-2-yl)amino)-1-oxopropan-2-yl)-6-oxopiperidine-3-carboxamide]",IC50,[1],54800 nM
same,solubility,Solubility pH 7,3010 µg/mL
same,IC50,[4],1610 nM
"COc1ccc(C[C@H](NC(=O)[C@@H](C)NC(=O)[C@H]2CCC(=O)NC2)C(=O)N[C@@H](CC2CCCC2)C(=O)[C@@]2(C)CO2)cc1 [Compound C-1059, (S)-N-((R)-1-(((S)-1-(((S)-3-cyclopentyl-1-((R)-2-methyloxiran-2-yl)-1-oxopropan-2-yl)amino)-3-(4-methoxyphenyl)-1-oxopropan-2-yl)amino)-1-oxopropan-2-yl)-6-oxopiperidine-3-carboxamide]",IC50,[1],38400 nM
same,solubility,Solubility pH 7,6010 µg/mL
same,IC50,[4],1650 nM
"C[C@H](NC(=O)CN1CCOCC1)C(=O)N[C@@H](Cc1ccc(F)cn1)C(=O)N[C@@H](Cc1ccccc1)C(=O)[C@@]1(C)CO1 [Compound C-1154, (S)-3-(5-fluoropyridin-2-yl)-N-((S)-1-((R)-2-methyloxiran-2-yl)-1-oxo-3-phenylpropan-2-yl)-2-((S)-2-(2-morpholinoacetamido)propanamido)propanamide]",IC50,[1],301 nM
same,solubility,Solubility pH 7,1910 µg/mL
same,IC50,[4],113 nM
